According to paper PMC10472371, “Discovery of E2730, a novel selective uncompetitive GAT1 inhibitor, as a candidate for anti‐seizure medication” (Epilepsia Open, 2023):
Read-outs that look alike come from different tables or passages of the source. Marks after values point to notes of the source that are not given here.

What was measured:
[1] = target: T1, hGABAAR (containing α1, β3, and γ2 subunits) (Homo sapiens, UniProt P14867+P18507+P28472); experiment: GABA-induced current in hGABAAR-expressing HEK-293 cells, whole-cell patch-clamp; type: cell-based
T1 construct: expressed in transfected cells; host or cells: HEK-293
Procedure: Data represent the mean ± SEM of 3 independent experiments. Control response is GABA (13 μM)-induced current amplitude. […] Cells in voltage clamp were maintained at -80 mV throughout the experiments following the voltage protocol.

corneal kindling mice = conditions: cited from earlier work
hNav1.2 = target: T2, hNav1.2 (Homo sapiens, UniProt Q99250); experiment: Veratridine-induced hNav1.2 activation in CHO cells, membrane potential assay; type: cell-based; conditions: veratridine 50 μM
T2 construct: expressed in transfected cells; host or cells: CHO
Procedure: Data represent the mean ± SEM of three independent experiments. Effects of E2730 and desipramine (Sigma-Aldrich, MO) on hNav1.2 activity were evaluated in CHO cells stably expressing hNav1.2 using a fluorescent-based membrane potential assay (Molecular Devices, CA). Activation of hNav1.2 was induced by veratridine (50 μM) and the change of fluorescence (excitation wavelength, 480 nm; emission wavelength, 540 nm) was recorded using Fluorescence Drug Screening System 6000 (Hamamatsu Photonics, Japan).

[2] = test system: extracellular GABA concentration in mouse hippocampus; experiment: Microdialysis: extracellular GABA concentration in mouse hippocampus; type: in vivo; conditions: mouse hippocampus, oral; E2730 10-100 mg/kg, tiagabine 3-30 mg/kg
Procedure: A guide cannula was implanted in the left hippocampus (2.7 mm posterior, 3.3 mm left, and 1.8 mm below from the bregma) of ddY mice (male, 5 weeks old). After 5–7 days of recovery, a microdialysis probe (Eicom) was inserted into the left hippocampus through the guide cannula. The tip of the microdialysis probe reached 4.8 mm below the bregma. The next day, the probe was connected to a perfusion tube and perfused with Ringer solution (containing 147.0 mM NaCl, 4.7 mM KCl, 0.6 mM MgSO4, 2.5 mM CaCl2, 5.0 mM HEPES, pH 7.4) at a flow rate of 1.5 μL/min. After ≥160 minutes of perfusion, collection of the perfusate (30 μL/20 min/fraction) was initiated, and 12 fractions per animal were collected for 240 minutes. E2730 (10–100 mg/kg), tiagabine (3–30 mg/kg), or vehicle was orally administered 72 minutes after initiating sample collection. Tiagabine was used as a reference ASM of a non‐competitive GAT1 inhibitor. Perfusate was switched from Ringer solution to high‐potassium Ringer solution (51.7 mM NaCl, 100.0 mM KCl, 0.6 mM MgSO4, 2.5 mM CaCl2, 5.0 mM HEPES, pH 7.4) after 127 minutes following the collection. GABA concentration in each sample was measured by a high‐performance liquid chromatography with tandem mass spectrometry method.

ddY mice = conditions: ref Levy et al.[39]; cited from earlier work
[3] = test system: 6 Hz-44 mA psychomotor seizure mice; experiment: Pharmaco-resistant 6 Hz-44 mA psychomotor seizures in mice; type: in vivo, mouse
Procedure: Psychomotor seizures were stimulated by applying currents (44 mA, 6 Hz, 0.2 millisecond rectangular pulse width, 3‐second duration each) via a corneal electrode (SEN‐7203; Nihon Kohden). E2730 (5–50 mg/kg), levetiracetam (Tokyo Chemical Industry; 20–200 mg/kg), or vehicle was orally administered to ddY mice (male, 5 weeks old; Japan SLC Inc.) 1 hour before electrostimulation. […] Behavioral seizures observed in mice were classified into the following four types: stun, forelimb clonus, twitching of the vibrissae, and Straub‐tail.

amygdala kindling rats = experiment: Amygdala kindling in rats; type: in vivo, rat
Excerpt: A tripolar electrode was implanted into the basolateral amygdala of Wistar‐Kyoto rats (male, 7 weeks old; Charles River Laboratories Japan, Japan). After at least 5 days of recovery, the amygdala was stimulated using an electronic stimulator at currents starting at 0.04 mA (50 Hz, 1 millisecond monophasic square‐wave pulses, 1‐second duration each) then increasing by 25% to a 30‐second duration until the after‐discharge threshold (ADT) was attained. ADT was defined as the current at which abnormal electroencephalogram and at least Racine's stage‐1 seizure behavior were observed. In the Racine's stage, seizure severity was classified as: 1, mouth and facial movements; 2, head nodding; 3, forelimb clonus; 4, rearing; 5, rearing and falling. From the next day onwards, electrical stimulation at the previously determined ADT was performed once daily in each rat. The rats showing ≥3 consecutive Racine stage‐5 seizures were deemed epileptic and used for drug evaluation. The pre‐ADT (i.e. baseline) seizure threshold of each rat was established prior to drug administration. After >1 hour following the determination of pre‐ADT seizure threshold, E2730 (5–50 mg/kg), levetiracetam (25 mg/kg), or vehicle was orally administered to the rats. One hour after the administration, the post‐ADT seizure threshold of each rat was ascertained, and the ratios of post‐ADT to pre‐ADT readings were analyzed.

T1 sequence (P14867 28-456): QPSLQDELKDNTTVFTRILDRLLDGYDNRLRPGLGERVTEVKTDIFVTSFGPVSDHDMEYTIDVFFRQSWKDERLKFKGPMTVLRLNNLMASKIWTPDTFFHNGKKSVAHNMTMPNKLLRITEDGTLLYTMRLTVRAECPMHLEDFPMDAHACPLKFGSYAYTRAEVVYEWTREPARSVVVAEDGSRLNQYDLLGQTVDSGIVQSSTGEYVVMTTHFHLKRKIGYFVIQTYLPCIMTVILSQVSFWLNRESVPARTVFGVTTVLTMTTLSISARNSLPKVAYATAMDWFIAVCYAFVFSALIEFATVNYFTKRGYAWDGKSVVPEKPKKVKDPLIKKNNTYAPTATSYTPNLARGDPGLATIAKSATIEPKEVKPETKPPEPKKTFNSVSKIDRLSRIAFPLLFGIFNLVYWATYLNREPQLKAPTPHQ
T1 sequence (P28472 26-473): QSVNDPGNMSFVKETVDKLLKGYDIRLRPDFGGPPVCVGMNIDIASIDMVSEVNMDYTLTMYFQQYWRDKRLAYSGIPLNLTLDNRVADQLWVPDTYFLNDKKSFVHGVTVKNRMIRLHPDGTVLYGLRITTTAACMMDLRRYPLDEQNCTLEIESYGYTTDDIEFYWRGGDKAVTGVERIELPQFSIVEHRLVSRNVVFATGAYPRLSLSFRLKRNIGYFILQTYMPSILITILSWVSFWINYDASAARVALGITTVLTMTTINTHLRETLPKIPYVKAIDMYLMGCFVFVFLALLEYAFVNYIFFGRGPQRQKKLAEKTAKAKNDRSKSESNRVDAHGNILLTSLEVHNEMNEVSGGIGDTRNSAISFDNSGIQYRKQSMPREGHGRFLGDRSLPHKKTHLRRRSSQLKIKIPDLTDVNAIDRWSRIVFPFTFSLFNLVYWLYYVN
T1 sequence (P18507 40-475): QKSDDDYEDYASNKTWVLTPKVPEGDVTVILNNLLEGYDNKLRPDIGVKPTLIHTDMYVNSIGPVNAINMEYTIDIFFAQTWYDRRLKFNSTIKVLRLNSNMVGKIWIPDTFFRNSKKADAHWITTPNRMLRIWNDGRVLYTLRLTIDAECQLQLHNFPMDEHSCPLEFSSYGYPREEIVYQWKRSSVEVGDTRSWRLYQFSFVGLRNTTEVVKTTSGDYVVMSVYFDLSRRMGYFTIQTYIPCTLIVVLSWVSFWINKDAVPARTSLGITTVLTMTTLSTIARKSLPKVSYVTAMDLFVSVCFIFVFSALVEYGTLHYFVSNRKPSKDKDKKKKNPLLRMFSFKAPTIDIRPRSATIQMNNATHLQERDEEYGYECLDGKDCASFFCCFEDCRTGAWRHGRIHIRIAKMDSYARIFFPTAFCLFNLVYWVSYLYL
T2 sequence (Q99250 whole entry): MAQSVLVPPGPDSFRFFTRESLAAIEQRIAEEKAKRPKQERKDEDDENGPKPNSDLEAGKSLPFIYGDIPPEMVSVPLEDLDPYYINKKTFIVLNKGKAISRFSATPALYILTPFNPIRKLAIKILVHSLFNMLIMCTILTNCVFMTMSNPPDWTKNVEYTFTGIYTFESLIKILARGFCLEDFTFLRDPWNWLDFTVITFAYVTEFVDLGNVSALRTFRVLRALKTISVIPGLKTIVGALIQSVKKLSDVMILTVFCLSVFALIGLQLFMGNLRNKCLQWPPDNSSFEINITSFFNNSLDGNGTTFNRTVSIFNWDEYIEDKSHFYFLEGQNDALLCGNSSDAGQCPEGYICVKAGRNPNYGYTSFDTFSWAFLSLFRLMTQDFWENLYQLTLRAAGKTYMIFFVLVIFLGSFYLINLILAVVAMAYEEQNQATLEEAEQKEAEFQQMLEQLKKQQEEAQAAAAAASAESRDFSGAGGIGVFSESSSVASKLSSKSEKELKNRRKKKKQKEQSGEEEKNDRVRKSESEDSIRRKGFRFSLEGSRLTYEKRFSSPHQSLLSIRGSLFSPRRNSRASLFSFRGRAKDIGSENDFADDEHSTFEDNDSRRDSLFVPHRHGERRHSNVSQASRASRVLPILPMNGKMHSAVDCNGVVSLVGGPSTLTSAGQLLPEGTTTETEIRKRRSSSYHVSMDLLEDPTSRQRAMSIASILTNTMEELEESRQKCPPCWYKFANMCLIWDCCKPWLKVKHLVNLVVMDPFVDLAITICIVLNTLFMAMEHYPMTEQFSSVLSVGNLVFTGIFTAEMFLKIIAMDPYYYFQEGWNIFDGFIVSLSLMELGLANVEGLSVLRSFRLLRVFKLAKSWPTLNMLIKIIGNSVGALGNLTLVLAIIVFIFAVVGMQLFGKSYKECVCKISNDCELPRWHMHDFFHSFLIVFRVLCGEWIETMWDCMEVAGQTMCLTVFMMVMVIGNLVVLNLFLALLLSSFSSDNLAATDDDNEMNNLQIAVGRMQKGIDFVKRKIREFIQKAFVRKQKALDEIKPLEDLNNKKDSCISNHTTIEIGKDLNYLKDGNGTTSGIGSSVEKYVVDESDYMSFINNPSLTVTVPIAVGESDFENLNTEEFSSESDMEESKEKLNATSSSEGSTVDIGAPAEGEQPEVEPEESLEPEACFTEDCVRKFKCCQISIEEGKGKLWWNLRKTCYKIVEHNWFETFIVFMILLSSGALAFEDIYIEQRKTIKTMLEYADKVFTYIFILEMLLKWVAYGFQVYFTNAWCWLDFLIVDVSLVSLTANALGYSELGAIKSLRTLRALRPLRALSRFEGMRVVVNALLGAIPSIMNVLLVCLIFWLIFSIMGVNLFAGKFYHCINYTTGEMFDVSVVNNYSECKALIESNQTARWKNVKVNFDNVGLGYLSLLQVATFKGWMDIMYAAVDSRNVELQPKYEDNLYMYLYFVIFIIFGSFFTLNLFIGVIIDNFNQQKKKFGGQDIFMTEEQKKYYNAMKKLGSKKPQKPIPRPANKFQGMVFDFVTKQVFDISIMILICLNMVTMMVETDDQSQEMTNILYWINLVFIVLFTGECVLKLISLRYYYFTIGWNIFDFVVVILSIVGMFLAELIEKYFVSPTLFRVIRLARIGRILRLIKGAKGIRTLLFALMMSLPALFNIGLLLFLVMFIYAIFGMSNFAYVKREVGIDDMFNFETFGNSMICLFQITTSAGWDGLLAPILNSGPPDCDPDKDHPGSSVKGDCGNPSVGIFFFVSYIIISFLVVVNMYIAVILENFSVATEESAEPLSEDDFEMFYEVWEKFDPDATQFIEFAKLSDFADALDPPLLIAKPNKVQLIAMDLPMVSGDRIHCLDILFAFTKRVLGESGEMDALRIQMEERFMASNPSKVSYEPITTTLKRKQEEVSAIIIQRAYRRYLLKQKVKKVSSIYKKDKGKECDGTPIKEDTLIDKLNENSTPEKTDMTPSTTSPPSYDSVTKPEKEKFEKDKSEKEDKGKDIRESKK

SMILES: CN1C(=O)CN=C(c2ccccc2)c2cc(Cl)ccc21 [Diazepam, diazepam]
- Emax at 1 µM ([1]; HEK293, read-out: Emax, potentiation of GABA-induced current amplitude): 218%

SMILES: CCCC(CCC)C(=O)O [Valproate, valproate]
- ED50 (95% CI) in corneal kindling mice (corneal kindling mice; ref Matagne et al.[40]): 110 ^c (83, 143) mg/kg

SMILES: CNCCCN1c2ccccc2CCc2ccccc21 [Desipramine, desipramine, reference compound]
- IC50 (hNav1.2): 4.9 µM

SMILES: O=C1CN=C(c2ccccc2Cl)c2cc([N+](=O)[O-])ccc2N1 [Clonazepam, clonazepam]
- ED50 (95% CI) in corneal kindling mice (corneal kindling mice; ref Matagne et al.[40]): 0.04 ^c (0.02, 0.07) mg/kg

SMILES: NC(=O)N1c2ccccc2C=Cc2ccccc21 [Carbamazepine, carbamazepine]
- ED50 (95% CI) in corneal kindling mice (corneal kindling mice; ref Matagne et al.[40]): 9 ^c (5, 11) mg/kg

SMILES: CCC1(c2ccccc2)C(=O)NC(=O)NC1=O [Phenobarbital, phenobarbital]
- ED50 (95% CI) in corneal kindling mice (corneal kindling mice; ref Matagne et al.[40]): 11 ^c (7, 15) mg/kg

SMILES: Cc1ccsc1C(=CCCN1CCC[C@@H](C(=O)O)C1)c1sccc1C [Tiagabine, tiagabine, reference compound]
- effect on basal extracellular GABA concentration [2]: significantly increased
- effect on high-potassium-induced extracellular GABA concentration [2]: significantly increased
- EC50 ([1]; GABA 13 μM, -80 mV, read-out: EC50, potentiation of GABA-induced current amplitude): 4.8 µM
- Emax at 100 µM ([1]; HEK293, at 100 μM, control response GABA (13 μM)-induced current, read-out: Emax, potentiation of GABA-induced current amplitude): 153%
- ED50 (95% CI) in corneal kindling mice (corneal kindling mice; ref Madsen et al.[38]): 0.51 ^a mg/kg
- TD50 (95% CI) in mouse rotarod test (ddY mice): 1.29 ^b mg/kg

SMILES: CCC1(C)CC(=O)NC1=O (stereo not shown) [Ethosuximide, ethosuximide]
- ED50 (95% CI) in corneal kindling mice (corneal kindling mice; ref Matagne et al.[40]): >254 ^c mg/kg

SMILES: CC[C@@H](C(N)=O)N1CCCC1=O [Levetiracetam, levetiracetam]
- ED50 ([3]; Mus musculus, oral, 1 hour before electrostimulation, ddY mice, read-out: ED50 (95% CI), 6 Hz-44 mA psychomotor seizures): > 200 mg/kg
- anti-seizure efficacy in 6 Hz-44 mA psychomotor seizures ([3]; levetiracetam 20-200 mg/kg oral): did not show ≥50% efficacy
- post-ADT/pre-ADT ratio (amygdala kindling rats; levetiracetam 25 mg/kg oral): 127%
- Minimum effective dose, amygdala kindling (rat) (amygdala kindling rats; oral, footnote a: minimum effective dose): 25 mg/kg
- ED50 (95% CI) in corneal kindling mice (corneal kindling mice; ref Matagne et al.[40]): 16 ^c (6, 43) mg/kg
- TD50 (95% CI) in mouse rotarod test (ddY mice): >500 ^b mg/kg
